{
  "source": "patent US20240216325A1",
  "about": "“NUCLEAR FACTOR KAPPA B PATHWAY INHIBITION TO ARREST CALCIFIC AORTIC STENOSIS” (CORNELL UNIVERSITY, priority 2019, published 2024)",
  "key": {"[1]": {"tested_on": "LDLR−/− mice, a CAVD mouse model", "experiment": "Fibro-osteogenic gene profiling (Q-PCR) on aortic valve tissues", "type": "in vivo", "conditions": "8 weeks treatment after 20 weeks high fat diet", "protocol": "Animals. Mouse experiments were performed according to the guidelines of the National Institute of Health and the protocols approved by the Institutional Animal Care and Use Committee of Cornell University. The mice used were LDLR (low-density lipoprotein receptor)−/− mice from Jackson Labs (No. 2270). Mice were fed a high-fat diet (Harlan Teklad No. TD88137, 42% of calories from fat, 0.25% cholesterol). Age-matched C57BL6J mice were obtained from Jackson Laboratories (Bar Harbour, ME) for control study. Drug administration. The NFκB pathway was intervened by administering either BAY11-7082 (injected intraperitoneal 3 times per week at 5 mg/kg) or tetrahydrobiopterin (BH4) (oral gavage at 10 mg/kg/day) to LDLR/mice, for 8 weeks after giving them high fat diet for 20 weeks Q-PCR analysis. Mouse Aortic valve samples were homogenized, total RNA was isolated using Takarabio RNA, purified and further quantified via Nanodrop. […] Quantitative RT-PCR was performed on all samples using SYBR Green PCR master mix (Applied Biosystems, Foster City, CA) and a CFX96 or MiniOpticon Real-Time PCR Detection System (Bio-Rad, Hercules, CA). […] Cardiac hemodynamic parameters, such as aortic valve peak velocity and left ventricle ejection fraction, were measured using doppler ultrasound before and after BAYT 1-7082 and BH4 administration. […]"}, "[2]": {"tested_on": "NFκB canonical signaling activity", "conditions": "acute cardiovascular injury, literature; cited from earlier work"}, "[3]": {"tested_on": "LDLR−/− mice, a CAVD mouse model", "experiment": "Echocardiography (pulsed-wave Doppler) of heart valve function in CAVD mouse model", "type": "in vivo", "protocol": "Animals. Mouse experiments were performed according to the guidelines of the National Institute of Health and the protocols approved by the Institutional Animal Care and Use Committee of Cornell University. The mice used were LDLR (low-density lipoprotein receptor)-/- mice from Jackson Labs (No. 2270). Mice were fed a high-fat diet (Harlan Teklad No. TD88137, 42% of calories from fat, 0.25% cholesterol). Age-matched C57BL6J mice were obtained from Jackson Laboratories (Bar Harbour, ME) for control study. Drug administration. The NFκB pathway was intervened by administering either BAY11-7082 (injected intraperitoneal 3 times per week at 5 mg/kg) or tetrahydrobiopterin (BH4) (oral gavage at 10 mg/kg/day) to LDLR/mice, for 8 weeks after giving them high fat diet for 20 weeks Echocardiography. Transthoracic echocardiography was performed under 2% isofluorane anaesthesia, with M[…] and MS5[…] probes connected to a Vevo 2100 system (VisualSonics). Heart valve function was assessed at 6 months and 8 months of age using according to established procedures. Mice were anesthetized using inhaled 2% isoflurane. Abdominal hair was removed using a chemical depilatory cream, and warmed ultrasound transmission gel was applied to the anterior thorax. Probes were applied in the long-axis and short-axis position to the chest. Transvalvular velocity and pressure gradients were captured using the pulsed-wave Doppler mode and manual tracing of >3 velocity time intervals on the resulting plots. In this work, the NFkB pathway was intervened by administering either BAY11-7082 (injected intraperitoneal 3 times per week at 5 mg/kg) or tetrahydrobiopterin (BH4) (oral gavage at 10 mg/kg/day) to LDLR^-/- mice, a CAVD mouse model, for another 8 weeks after starting them on high fat diet for 20 weeks (FIGS. 17A-17C). Cardiac hemodynamic parameters, such as aortic valve peak velocity and left ventricle ejection fraction, were measured using doppler ultrasound before and after BAYT 1-7082 and BH4 administration. […]"}, "[4]": {"tested_on": "LDLR−/− mice, a CAVD mouse model", "experiment": "Alizarin red staining for calcium contents on the aortic valves", "type": "in vivo", "conditions": "8 weeks treatment after 20 weeks high fat diet", "protocol": "Animals. Mouse experiments were performed according to the guidelines of the National Institute of Health and the protocols approved by the Institutional Animal Care and Use Committee of Cornell University. The mice used were LDLR (low-density lipoprotein receptor)−/− mice from Jackson Labs (No. 2270). Mice were fed a high-fat diet (Harlan Teklad No. TD88137, 42% of calories from fat, 0.25% cholesterol). Age-matched C57BL6J mice were obtained from Jackson Laboratories (Bar Harbour, ME) for control study. Drug administration. The NFκB pathway was intervened by administering either BAY11-7082 (injected intraperitoneal 3 times per week at 5 mg/kg) or tetrahydrobiopterin (BH4) (oral gavage at 10 mg/kg/day) to LDLR/mice, for 8 weeks after giving them high fat diet for 20 weeks Tissue staining and immunohistochemistry. Mouse hearts were isolated, perfused, fixed, embedded in paraffin, sectioned, and mounted. Alizarin red staining (ARS). Sections were deparaffinized and incubated in ARS stain for 5 minutes (1% Alizarin red in water, pH 4.2 adjusted by using 10% ammonium hydroxide in water). Sections were incubated in acetone for 30 seconds and then rinsed with a 1:1 solution of acetone and xylene. […] Cardiac hemodynamic parameters, such as aortic valve peak velocity and left ventricle ejection fraction, were measured using doppler ultrasound before and after BAYT 1-7082 and BH4 administration. […]"}, "NFκB p65": {"tested_on": "NFκB p65", "experiment": "p65 nuclear localization in VEC on 3D hydrogels (immunofluorescence)", "type": "cell-based, porcine", "conditions": "48 hour, OGM alone insufficient", "protocol": "White arrows indicate cells with nuclear-positive signal. Scale bar is 20 μm. […] Asterisks indicate statistically significant groups (*: p<0.05).\n3D Hydrogel Culture Model Preparation. Cellularized type II collagen hydrogels were prepared as previously described (Butcher et al., “Valvular Endothelial Cells Regulate the Phenotype of Interstitial Cells in Co-Culture: Effects of Steady Shear Stress,” Tissue Eng. 12:905-915 (2006), which is hereby incorporated by reference in its entirety)). Briefly, porcine aortic valve endothelial cells were topically seeded at 50,000 cell/cm^2 density, whereas porcine aortic valve interstitial cells were encapsulated within the neutralized collagen gel suspension (2 mg/mL) at 1,000,000 cells/mL density. Constructs were allowed to gel for 1 hour at 37° C., 5% CO2, and then cultured overnight in their respective basal-medium conditions. For osteogenic differentiation conditions, basal-medium was supplemented with 10 mmol/L β-glycerophosphate, 50 μg/mL 1-ascorbic acid, and 100 nM dexamethasone, as previously described (Richards et al., “Side-Specific Endothelial-Dependent Regulation of Aortic Valve Calcification: Interplay of Hemodynamics and Nitric Oxide Signaling,” Am J Pathol. 182:1922-1931 (2013), which is hereby incorporated by reference in its entirety). […]"}, "Porcine aortic VEC": {"tested_on": "Porcine aortic VEC", "experiment": "VEC on 3D collagen hydrogels, calcification by Alizarin Red S staining and dye extraction", "type": "cell-based", "conditions": "OGM+TNFα 30 ng/mL, 14 days", "description": "Primary Aortic Valve Cell Isolation and Culture. Porcine valves are a widely used analog for human adult valve endothelial and interstitial cells. Unlike mice, pigs develop atherosclerosis and valvular lesions without intervention, similar to humans. Large-scale culture of porcine valve cell populations is feasible due to ample tissue size/cell dissociation yields. […] Only VEC cultures with consistent CD31 and VE-cadherin (vascular endothelial cadherin) expression, cobblestone morphology, and nondetectable αSMA (alphasmooth muscle actin) expression were used. αSMA levels were measured via RT-PCR (>37 cycle threshold), Western blot, and immunofluorescence.\nAll reagents were obtained from Sigma Aldrich, St. Louis, MO, unless otherwise noted. […]\nHydrogel Calcification Analysis. To quantify calcified matrix developed in different experimental conditions, an Alizarin Red absorbance assay was implemented. […] The concentration of dye in solution was then quantified using absorbance spectroscopy at 405-nm wavelength. Samples absorbance readings were normalized to basal growth medium culture condition."}, "[5]": {"tested_on": "valve endothelial cells (VEC)", "experiment": "EndMT in VEC: VE-cadherin, αSMA, SNAI1 by RT-PCR and immunofluorescence", "type": "cell-based, porcine", "conditions": "GM+TNFα 30 ng/mL, 48 h", "protocol": "Scale bar is 20 μm. […] Scale bar is […]. […] Arrows indicate cells coexpressing CD31 and αSMA. Scale bar is 100 μm. […] Asterisks indicate β-gal-positive cells in interstitial space. Scale bar is […]. CTL indicates control; GM, basal growth medium; and LDLR, low-density lipoprotein receptor.\n3D Hydrogel Culture Model Preparation. Cellularized type II collagen hydrogels were prepared as previously described (Butcher et al., “Valvular Endothelial Cells Regulate the Phenotype of Interstitial Cells in Co-Culture: Effects of Steady Shear Stress,” Tissue Eng. 12:905-915 (2006), which is hereby incorporated by reference in its entirety)). Briefly, porcine aortic valve endothelial cells were topically seeded at 50,000 cell/cm^2 density, whereas porcine aortic valve interstitial cells were encapsulated within the neutralized collagen gel suspension (2 mg/mL) at 1,000,000 cells/mL density. Constructs were allowed to gel for 1 hour at 37° C., 5% CO2, and then cultured overnight in their respective basal-medium conditions. For osteogenic differentiation conditions, basal-medium was supplemented with 10 mmol/L β-glycerophosphate, 50 μg/mL 1-ascorbic acid, and 100 nM dexamethasone, as previously described (Richards et al., “Side-Specific Endothelial-Dependent Regulation of Aortic Valve Calcification: Interplay of Hemodynamics and Nitric Oxide Signaling,” Am J Pathol. 182:1922-1931 (2013), which is hereby incorporated by reference in its entirety). For exogenous TNFα administration, recombinant human TNFα was added to appropriate media condition before administration at 30 ng/mL.\nQuantitative Real-Time Polymerase Chain Reaction. Total RNA was extracted using a RNeasy total RNA purification kit (Qiagen, Valencia, CA), and RNA was reverse transcribed to cDNA using the iScript cDNA synthesis kit (Bio-Rad, Hercules, CA). Quantitative RT-PCR was performed on all samples using SYBR Green PCR master mix (Applied Biosystems, Foster City, CA) and a CFX96 or MiniOpticon Real-Time PCR Detection System (Bio-Rad, Hercules, CA). Samples amplifying at >37 cycles were considered nondetectable.\nFor in vitro cultures, intact collagen gels were rinsed twice in PBS and fixed in 4% paraformaldehyde for 1 hour at 25° C. Samples were rinsed 3× on a rocker with PBS for 15 minutes each, permeabilized with 0.2% Triton-X (VWR International, West Chester, PA) for 10 minutes on rocker, and blocked in 10% goat serum for 1 hour at 25° C."}, "RANKL": {"target": "T1, RANKL (Mus musculus, UniProt O35235)", "T1 construct": "host or cells: hypercholesterolemic mice (in vivo, endogenous protein)", "T1 sequence (O35235 1-316)": "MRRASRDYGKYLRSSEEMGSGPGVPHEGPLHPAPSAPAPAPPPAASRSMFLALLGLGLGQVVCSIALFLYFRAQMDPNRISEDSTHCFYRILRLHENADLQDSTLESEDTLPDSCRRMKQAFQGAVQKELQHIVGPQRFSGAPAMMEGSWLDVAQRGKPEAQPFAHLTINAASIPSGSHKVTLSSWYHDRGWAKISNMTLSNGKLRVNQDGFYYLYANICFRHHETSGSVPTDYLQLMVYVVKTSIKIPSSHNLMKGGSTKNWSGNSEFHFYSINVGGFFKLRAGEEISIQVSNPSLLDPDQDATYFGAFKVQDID", "conditions": "literature (Weiss et al. 2013); cited from earlier work"}, "[6]": {"conditions": "LDLR−/− mice on high fat diet, treatment from 6 months, read at 8 months, vs control LDLR−/− given 10% DMSO/PBS"}},
  "data": [
    {"compound": "Cc1ccc(S(=O)(=O)/C=C/C#N)cc1", "note": "[BAY11-7082]", "values": [
      {"measurement": "collagen type 1A (Col1A) mRNA expression in aortic valve tissue", "setting": "[1]", "result": "significantly decreased"},
      {"measurement": "intercellular adhesion molecule 1 (ICAM1) mRNA expression in aortic valve tissue", "setting": "[1]", "result": "significantly decreased"},
      {"measurement": "treatment of septic shock or ischemic reperfusion injury", "setting": "[2]", "result": "effective"},
      {"measurement": "aortic valve peak velocity", "setting": "[3]; [6]", "result": "lessened increase"},
      {"measurement": "ejection fraction velocity ratio (EFVR)", "setting": "[3]; [6]", "result": "lessened"},
      {"measurement": "hemodynamic effect by sex", "setting": "[3]; female vs male LDLR−/− mice, 8 weeks treatment", "result": "significantly affected both female and male mice"},
      {"measurement": "calcium deposition on the aortic valves (Alizarin red staining)", "setting": "[4]", "result": "less calcium deposition"}
    ]},
    {"compound": "TNFα", "values": [
      {"measurement": "p65 nuclear localization", "setting": "NFκB p65", "result": "required to induce p65 nuclear localization"},
      {"measurement": "calcium deposition (ARS)", "setting": "Porcine aortic VEC", "result": "significantly increased"},
      {"measurement": "EndMT induction", "setting": "[5]", "result": "induced EndMT"},
      {"measurement": "SNAI1 gene expression", "setting": "[5]", "result": "significantly increased"},
      {"measurement": "VE-cadherin gene expression (CDH5)", "setting": "[5]", "result": "reduction in gene expression"},
      {"measurement": "αSMA expression", "setting": "[5]", "result": "increased"}
    ]},
    {"compound": "osteoprotegerin: decoy receptor for RANKL", "values": [
      {"measurement": "CAVD calcification", "setting": "RANKL", "result": "mitigates CAVD calcification"}
    ]}
  ]
}
